Data reported in PubChem BioAssay AID720570 (Broad Institute, 2013).
Calls of active or inactive are those of the source.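 Rule for the calls: active = cell-killing curve crosses a set limit at a concentration no more than twice the top valid dose; inconclusive = flat curve with a 30 to 70% loss, or a poor fit; inactive = signal rising instead of falling, and the rest.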

Assay: TC71 Ewing sarcoma cell killing, confirmation, luminescence, cherry-picked samples, retest (AID 720570)
Conditions: TC71 Ewing sarcoma viability, CellTiter-Glo ATP, 72 h

| Compound | activity change, negative = cytotoxicity (at 26 µM (top of the series)) | further results |
| --- | --- | --- |
| S=C(NCCN1CCOCC1)Nc1ccccc1Cl | 11.4% (inactive) | – |
| C[C@H]1CN([C@@H](C)CO)C(=O)c2cccc(NC(=O)c3ccc(-c4nccs4)cc3)c2O[C@@H]1CN(C)Cc1ccc(C(=O)Nc2ccccc2N)cc1 | -30.9% (inactive) | – |
| COC(=O)C[C@H]1CC[C@H]2[C@@H](COc3ccc(NC(=O)Nc4cccc(Cl)c4)cc3C(=O)N2C)O1 | -10.7% (inactive) | – |
| COc1cc(/C=N\Nc2nc(-c3ccc(C)cc3)c(NC(C)=O)s2)ccc1O | 4.59% (inactive) | – |
| Cc1ccc(Cl)cc1NC(=O)Cn1cc(C(F)(F)F)cc(Cl)c1=O | 2.53% (inactive) | – |
| Cc1cc(C(=O)CN2C(=O)c3ccccc3S2(=O)=O)c(C)n1C(C)C | 3.94% (inactive) | – |
| COc1ccc(OC)c(-c2cc(C(F)(F)F)c3c(n2)sc2c(O)cc(=O)[nH]c23)c1 | -3.31% (inactive) | – |
| COC(=O)C[C@@H]1CC[C@@H]2[C@@H](COc3ccc(NC(=O)Nc4cccc(F)c4)cc3C(=O)N2C)O1 | 5.61% (inactive) | – |
| COC(=O)C[C@@H]1CC[C@@H]2[C@H](COc3ccc(NC(=O)c4ccc(F)c(F)c4)cc3C(=O)N2C)O1 | 9.2% (inactive) | – |
| CCOC(=O)Cc1csc(NC(=S)NC(=O)c2ccc(C)cc2)n1 | 19.7% (inactive) | – |
| C[C@@H]1CN([C@@H](C)CO)S(=O)(=O)c2ccc(C#Cc3ccncc3)cc2O[C@H]1CN(C)C(=O)C1CCOCC1 | -5.87% (inactive) | – |
| COc1cc(/C=N/NS(=O)(=O)c2ccc3ccccc3c2)ccc1OCc1ccc(C(=O)O)cc1 | 12.1% (inactive) | – |
| NC1=CC(=O)C(=O)c2cccnc21 | 1.93% (inactive) | – |
| C=CCOC(=O)c1sc(NC(=O)c2ccc(OC)cc2)nc1C | -3.67% (inactive) | – |
| CN(CCO)c1ccc(/C=N/Nc2nncc3ccccc23)cc1 | 0.119% (inactive) | – |
| COc1ccc2nc(-c3ccc(F)cc3)sc2c1 | -14.1% (inactive) | – |
| Cc1ccc(/C=C2\SC(=S)N(CCCC(=O)NNC(=O)c3ccccc3O)C2=O)cc1 | -5.43% (inactive) | – |
| COc1ccc(NC(=O)N(C)[C@H]2C[C@H]3c4[nH]c5ccccc5c4CCN3C(=O)[C@H]2CO)cc1 | 2.92% (inactive) | – |
| C=CC[n+]1c(-c2ccc(C)cc2)csc1Nc1ccc(NC(C)=O)cc1 | 0.856% (inactive) | – |
| COC(=O)C[C@H]1CC[C@H]2[C@H](COc3ccc(NC(=O)Nc4cccc(Cl)c4)cc3C(=O)N2C)O1 | -2.79% (inactive) | – |
| CCS(=O)(=O)N1Cc2ccccc2CC1C(=O)Nc1nnc(SCc2ccc(C#N)cc2)s1 (stereo unspecified) | 21.3% (inactive) | – |
| Cc1cc(C(=O)NNC(=O)c2ccc(S(=O)(=O)N(C)C)cc2)c(C)o1 | 17.6% (inactive) | – |
| CC(NC(=O)c1ccco1)c1nc(-c2ccc(C(C)(C)C)cc2)no1 (stereo unspecified) | -6.69% (inactive) | – |
| CCOc1cc(N2CCC(O)CC2)ccc1Nc1ncc2c(n1)N(C)c1ccccc1C(=O)N2C | -28.3% (inactive) | – |
| COC(=O)C[C@@H]1CC[C@H]2[C@H](COc3ccc(NC(=O)Nc4ccc(C#N)cc4)cc3C(=O)N2C)O1 | – | activity change, negative = cytotoxicity (at 23.5 µM (top of the series)): 4.96% (inactive) |
| CCCN(C)C[C@H]1Oc2ncc(-c3ccccc3)cc2C(=O)N([C@@H](C)CO)C[C@H]1C | 13% (inactive) | – |

| Compound | activity change, negative = cytotoxicity (at 26 µM (top of the series)) | further results |
| --- | --- | --- |
| O=C(O)c1ccc(N/N=C/c2cc(Br)cs2)cc1 | 25.7% (inactive) | – |
| N#C[C@@H]1[C@H](c2ccc(C#Cc3cccc(F)c3)cc2)[C@@H](CO)N1C(=O)C1CCCC1 | -12.2% (inactive) | – |
| O=c1c2ccccc2oc2ccc(C#CC3(O)CCCCC3)cc12 | -10.3% (inactive) | – |
| CC(=O)c1ccc(N=Nc2ccc(C)cc2)cc1 | 13.2% (inactive) | – |
| C[C@@H]1CN([C@H](C)CO)C(=O)c2cc(NC(=O)Nc3ccccc3)ccc2O[C@@H]1CN(C)Cc1ccc(C(=O)Nc2ccccc2N)cc1 | -33.9% (inactive) | – |
| CCCn1c(C)cc(C(=O)CN2C(=O)c3ccccc3S2(=O)=O)c1C | 5.44% (inactive) | – |
| COC(=O)C(CC#Cc1ccc2c(c1)[C@]1(C(=O)N2)[C@H](c2ccc(OCCO)cc2)N2[C@H](c3ccccc3)[C@H](c3ccccc3)OC(=O)[C@H]2[C@@H]1C(=O)N1CCN(c2ncccn2)CC1)C(=O)OC | 3.63% (inactive) | – |
| C[C@H](CO)N1C[C@H](C)[C@H](CN(C)CC2CCCCC2)Oc2ccc(NC(=O)Nc3cccc4ccccc34)cc2C1=O | 6.42% (inactive) | – |
| CN(C)[C@@H]1CCC[C@@H]1OC(=O)C(c1ccccc1)c1ccccc1 | 10.9% (inactive) | – |
| O=C(Nc1ccc(NC(=O)c2cc3ccccc3o2)cc1)c1ccc2c(c1)OCCO2 | -3.21% (inactive) | – |
| Cc1ccsc1C(=O)OCC(=O)NCCC1=CCCCC1 | 9.59% (inactive) | – |
| O=C(CNC(=O)Cc1ccccc1)N=Nc1c(O)n(Cc2ccc3c(c2)OCO3)c2ccccc12 | 8.54% (inactive) | – |
| CC(=O)Nc1cc(C(=O)NCc2ccco2)ccc1Sc1ccc(F)cc1 | -1.03% (inactive) | – |
| CCOc1ccccc1CNC(=O)c1ccc(Sc2ccc(Cl)cc2)c(NC(C)=O)c1 | -3.24% (inactive) | – |
| COc1ccc(C(=O)Nc2cccc(C(=O)N/N=C/c3ccc(OC)cc3OC)c2)cc1 | 11.2% (inactive) | – |
| CCOc1ccc(NC(=O)C(=O)N/N=C\c2ccc(CNS(=O)(=O)c3ccccc3)o2)cc1 | 17.4% (inactive) | – |
| COc1ccc(CN(C)C[C@H]2Oc3ccc(NC(=O)CCCCCC(=O)Nc4ccccc4N)cc3CC(=O)N([C@H](C)CO)C[C@H]2C)cc1 | – | activity change, negative = cytotoxicity (at 21 µM (top of the series)): -5.04% (inactive) |
| COC(=O)COc1ccc(-c2nccc(-c3ccccn3)n2)cc1 | 7.95% (inactive) | – |
| Cc1c(-c2nc(-c3ccc(C(C)(C)C)cc3)no2)n(C)oc1=O | -0.627% (inactive) | – |
| C/C(=N\N(c1ccccc1)c1ccccc1)c1ccco1 | 12.8% (inactive) | – |
| O=C(CCCN1C(=O)/C(=C/c2ccccc2Cl)SC1=S)NNC(=O)c1ccc(Cl)cc1Cl | -1.95% (inactive) | – |
| COCCCNc1ccn2nc(-c3ccccc3)cc2n1 | -3.56% (inactive) | – |
| Cc1cc2sc3ccc(C#CC4(O)CCCCC4)cc3c(=O)c2cc1C | 23.5% (inactive) | – |
| COc1ccc(C/C(N)=N/OC(C)=O)cc1OC | 9.15% (inactive) | – |
| Cc1ccsc1C(=O)OCC(=O)c1cc(C)n(C)c1C | 15.6% (inactive) | – |
| CN(C)c1ccc(N=Nc2ccccc2Br)cc1 | -15.6% (inactive) | – |

| Compound | activity change, negative = cytotoxicity (at 26 µM (top of the series)) | further results |
| --- | --- | --- |
| C=C1C(=O)C=C[C@]2(C)C[C@@H]3OC(=O)[C@](C)(O)[C@H]3C[C@@H]12 | -94.2% (inactive) | – |
| O=C1Nc2cc(C(=O)NCCN3CCCCCC3)ccc2S/C1=C\c1ccccc1 | -2.13% (inactive) | – |
| CCOc1ccc(-c2cc(CCCC(=O)NCc3ccc(C)cc3)no2)cc1 | -3.16% (inactive) | – |
| C(=N\Nc1ccc2ccccc2n1)/c1ccc2c(c1)OCO2 | -9% (inactive) | – |
| COc1ccc2cc(C(N)=O)/c(=N\NC(=O)c3ccccc3)oc2c1 | 16.9% (inactive) | – |
| COC(=O)C[C@H]1C=C[C@@H](NC(=O)Nc2ccc(C(F)(F)F)cc2)[C@H](CO)O1 | 9.61% (inactive) | – |
| O=c1oc2cc(O)ccc2s1 | -26.8% (inactive) | – |
| N#C[C@H]1[C@H](c2ccc(C#Cc3ccccc3F)cc2)[C@@H](CO)N1C(=O)C1CCCCC1 | – | activity change, negative = cytotoxicity (at 23.5 µM (top of the series)): -17% (inactive) |
| COc1cc(C(c2c(C)[nH][nH]c2=O)c2c(C)[nH][nH]c2=O)ccc1OC(C)C | 3.29% (inactive) | – |
| C[C@@H]1CN([C@H](C)CO)C(=O)CCCn2nncc2CO[C@H]1CN(C)Cc1ccc(Oc2ccccc2)cc1 | -9.65% (inactive) | – |
| O=S(=O)(c1ccc(F)cc1)N1C[C@H]2[C@@H](c3ccccc31)[C@H](CO)N2Cc1ccccc1Cl | – | activity change, negative = cytotoxicity (at 23.5 µM (top of the series)): -20.2% (inactive) |
| Cc1ccc(/C=C/C(=O)N2CCN(S(=O)(=O)c3c(C)c(C)cc(C)c3C)CC2)o1 | -5.96% (inactive) | – |
| COc1ccccc1CNC(=O)C[C@@H]1CC[C@H]2[C@@H](COC[C@H](O)CN2C(=O)Nc2ccc(C(F)(F)F)cc2)O1 | -18.3% (inactive) | – |
| C[C@@H]1CN([C@@H](C)CO)C(=O)Cc2cc(NC(=O)Cn3cnnn3)ccc2O[C@@H]1CN(C)Cc1ccc(Oc2ccccc2)cc1 | 21.2% (inactive) | – |
| COc1cc(/C=N/NC(=O)c2csc3c2CCCC3)cc(OC)c1O | -7.47% (inactive) | – |
| O=C1Nc2ccccc2C1=Nc1ccccc1-c1ccccc1 | 11.4% (inactive) | – |
| CNC[C@H](CC1CCCCC1)NC[C@H](CO)NCCc1cccc(C(F)(F)F)c1 | 3.89% (inactive) | – |
| Cc1ccc2c(c1)C(=O)N1[C@H]3c4cc(Br)ccc4OC[C@@H]3[C@H](c3ccccc3)[C@]1(C)C(=O)N2 | -5.71% (inactive) | – |
| C[C@@H]1CN([C@@H](C)CO)C(=O)c2cccc(NC(=O)Nc3ccccc3)c2O[C@@H]1CN(C)Cc1ccc(-c2ccccc2)cc1 | 20.4% (inactive) | – |
| CN(C)C(=O)c1ccc(-c2ccccc2[C@@H]2[C@@H](CO)N(C(=O)C3CC3)[C@H]2C#N)cc1 | 25.5% (inactive) | – |
| N/C(Cc1nc(-c2ccc(F)cc2)cs1)=N\O | 11.6% (inactive) | – |
| O=C1C(=O)N(CCS(=O)(=O)c2ccccc2)c2ccccc21 | 2.35% (inactive) | – |
| Cc1occc1-c1n[nH]c(=S)n1C | 0.805% (inactive) | – |
| COc1ccc(C=NNc2nc3ccccc3s2)cc1 | -1.49% (inactive) | – |
